The nature of one series: Solubility of bitopertin. The format is physicochemical. From the text: (§1) Being a BCS 2 molecule (according to the Biopharmaceutics Classification System, wherein the molecule has high permeability and low solubility), the API particles size distribution has been identified as a major critical quality attribute of the drug substance. […] Thus, micronized API was selected for development of a suitable formulation.

The nature of series [1]: Biopharmaceutics Classification System class. It counts as physicochemical. Also noted: key: 2: the molecule has high permeability and low solubility.
From the text: as §1

Consider 1 compound from US20160271126A1, “PHARMACEUTICAL COMPOSITION” (Hoffmann-La Roche Inc., priority 2013, published 2016).

Turning to `C[C@H](Oc1ccc(S(C)(=O)=O)cc1C(=O)N1CCN(c2ncc(C(F)(F)F)cc2F)CC1)C(F)(F)F` [Bitopertin], the “solubility in aqueous buffers and in water” value in the series “Solubility of bitopertin” (aqueous buffers and water) was “practically insoluble”. Besides, in “Solubility of bitopertin” (polar organic solvents), the “solubility in polar organic solvents” value was “freely soluble”. In addition, the “BCS class (Biopharmaceutics Classification System)” value in series [1] worked out at 2.
